Assay results as given in US8580794B2 (AbbVie Inc., priority 2009, dated 2013).

Tests used:
RS4;11 cells [1] = settings: Blood, 2008, Vol. 111, 2300-2309; cited from earlier work
GST-Bc1-2 = GST-Bc1-2 (Homo sapiens, UniProt P10415); assay: Time Resolved-Fluorescence Resonance Energy Transfer (TR-FRET) Bcl-2 binding assay with F-Bak peptide probe; settings: GST-Bcl-2 1 nM, F-Bak probe 100 nM, Tb-anti-GST 1 nM; '<' = below limit of detection; read-out: TR-FRET Bcl-2 Binding Ki
RS4;11 cells [2] = assay: RS4;11 Cell Viability Assay (CellTiter Glo); assay type: cell-based; settings: Homo sapiens, RS4-11, 48 h, 50,000 cells per well, 10% human serum;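 note: RS4,11 acute lymphoblastic leukemia cells, viability as percent of untreated control cells, EC50 for loss of viable cells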
Method: The acute lymphoblastic leukemia (ALL) cell line RS4;11 was used as the primary human cell line to assess the cellular activity of Bcl-2 selective agents in vitro and their efficacy in vivo.
Cell cytotoxicity EC50 values were assessed using CellTiter Glo (Promega) according to the manufacturer's recommendations. The EC50 values were determined as a percentage of viable cells following treatment compared to the untreated control cells.

Chain of GST-Bc1-2 (P10415 whole entry): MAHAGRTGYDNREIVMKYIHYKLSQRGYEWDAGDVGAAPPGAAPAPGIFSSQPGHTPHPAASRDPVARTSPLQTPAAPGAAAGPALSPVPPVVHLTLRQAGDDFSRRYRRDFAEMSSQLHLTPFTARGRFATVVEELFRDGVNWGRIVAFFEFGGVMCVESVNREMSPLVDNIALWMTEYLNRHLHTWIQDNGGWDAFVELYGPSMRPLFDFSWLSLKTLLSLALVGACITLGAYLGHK

SMILES	sensitivity of RS4;11 cells to inhibitor (RS4;11 cells [1])	Ki (GST-Bc1-2) [nM]	EC50 (RS4;11 cells [2]) [nM]
CN(C)CC[C@H](CSc1ccccc1)Nc1ccc(S(=O)(=O)NC(=O)c2ccc(N3CCN(Cc4ccccc4-c4ccc(Cl)cc4)CC3)cc2)cc1[N+](=O)[O-] [ABT-737, N-(4-(4-((4′-chloro(1,1′-biphenyl)-2-yl)methyl)piperazin-1-yl)benzoyl)-4-(((1R)-3-(dimethylamino)-1-((phenylsulfanyl)methyl)propyl)amino)-3-nitrobenzenesulfonamide]	sensitive		
CC1(C)CCC(CN2CCN(c3ccc(C(=O)NS(=O)(=O)c4cnc5c(c4)c(Cl)cn5CC4CCOCC4)c(Oc4cnc5[nH]ccc5c4)c3)CC2)=C(c2ccc(Cl)cc2)C1 [Example 389, 4-(4-{[2-(4-chlorophenyl)-4,4-dimethylcyclohex-1-en-1-yl]methyl}piperazin-1-yl)-N-{[3-chloro-1-(tetrahydro-2H-pyran-4-ylmethyl)-1H-pyrrolo[2,3-b]pyridin-5-yl]sulfonyl}-2-(1H-pyrrolo[2,3-b]pyridin-5-yloxy)benzamide]		0.774	733
COCC1(C)CCC(CN2CCN(c3ccc(C(=O)NS(=O)(=O)c4ccc(NCC5CCOCC5)c([N+](=O)[O-])c4)c(Oc4cnc5[nH]ccc5c4)c3)CC2)=C(c2ccc(Cl)cc2)C1 (stereo not drawn) [Example 390, 4-(4-{[2-(4-chlorophenyl)-4-(methoxymethyl)-4-methylcyclohex-1-en-1-yl]methyl}piperazin-1-yl)-N-({3-nitro-4-[(tetrahydro-2H-pyran-4-ylmethyl)amino]phenyl}sulfonyl)-2-(1H-pyrrolo[2,3-b]pyridin-5-yloxy)benzamide]		< 0.01	5.06
CC1(C)CCC(CN2CCN(c3ccc(C(=O)NS(=O)(=O)c4ccc(OCC5CCC(CO)(CO)CC5)c([N+](=O)[O-])c4)c(Oc4cnc5[nH]ccc5c4)c3)CC2)=C(c2ccc(Cl)cc2)C1 [Example 391, N-[(4-{[4,4-bis(hydroxymethyl)cyclohexyl]methoxy}-3-nitrophenyl)sulfonyl]-4-(4-{[2-(4-chlorophenyl)-4,4-dimethylcyclohex-1-en-1-yl]methyl}piperazin-1-yl)-2-(1H-pyrrolo[2,3-b]pyridin-5-yloxy)benzamide]		< 0.01	8.41
COC1CCN(C(=O)Nc2ccc(S(=O)(=O)NC(=O)c3ccc(N4CCN(CC5=C(c6ccc(Cl)cc6)CC(C)(C)CC5)CC4)cc3Oc3cnc4[nH]ccc4c3)cc2Cl)CC1 [Example 392, N-(2-chloro-4-{[4-(4-{[2-(4-chlorophenyl)-4,4-dimethylcyclohex-1-en-1-yl]methyl}piperazin-1-yl)-2-(1H-pyrrolo[2,3-b]pyridin-5-yloxy)benzoyl]sulfamoyl}phenyl)-4-methoxypiperidine-1-carboxamide]		0.171	> 1000
CC1(C)CCC(CN2CCN(c3ccc(C(=O)NS(=O)(=O)c4ccc(NC(=O)N5CCC(C#N)CC5)c(Cl)c4)c(Oc4cnc5[nH]ccc5c4)c3)CC2)=C(c2ccc(Cl)cc2)C1 [Example 393, N-(2-chloro-4-{[4-(4-{[2-(4-chlorophenyl)-4,4-dimethylcyclohex-1-en-1-yl]methyl}piperazin-1-yl)-2-(1H-pyrrolo[2,3-b]pyridin-5-yloxy)benzoyl]sulfamoyl}phenyl)-4-cyanopiperidine-1-carboxamide]		0.263	> 1000
CC1(C)CCC(CN2CCN(c3ccc(C(=O)NS(=O)(=O)c4ccc(NC(=O)N5CCC(C)(O)CC5)c(Cl)c4)c(Oc4cnc5[nH]ccc5c4)c3)CC2)=C(c2ccc(Cl)cc2)C1 [Example 394, N-(2-chloro-4-{[4-(4-{[2-(4-chlorophenyl)-4,4-dimethylcyclohex-1-en-1-yl]methyl}piperazin-1-yl)-2-(1H-pyrrolo[2,3-b]pyridin-5-yloxy)benzoyl]sulfamoyl}phenyl)-4-hydroxy-4-methylpiperidine-1-carboxamide]		0.132	461
COCC1CCN(C(=O)Nc2ccc(S(=O)(=O)NC(=O)c3ccc(N4CCN(CC5=C(c6ccc(Cl)cc6)CC(C)(C)CC5)CC4)cc3Oc3cnc4[nH]ccc4c3)cc2Cl)CC1 [Example 395, N-(2-chloro-4-{[4-(4-{[2-(4-chlorophenyl)-4,4-dimethylcyclohex-1-en-1-yl]methyl}piperazin-1-yl)-2-(1H-pyrrolo[2,3-b]pyridin-5-yloxy)benzoyl]sulfamoyl}phenyl)-4-(methoxymethyl)piperidine-1-carboxamide]		0.257	> 1000
CC1(C)CCC(CN2CCN(c3ccc(C(=O)NS(=O)(=O)c4ccc(NC(=O)N5CCC(N6CCOCC6)CC5)c(Cl)c4)c(Oc4cnc5[nH]ccc5c4)c3)CC2)=C(c2ccc(Cl)cc2)C1 [Example 398, N-(2-chloro-4-{[4-(4-{[2-(4-chlorophenyl)-4,4-dimethylcyclohex-1-en-1-yl]methyl}piperazin-1-yl)-2-(1H-pyrrolo[2,3-b]pyridin-5-yloxy)benzoyl]sulfamoyl}phenyl)-4-(morpholin-4-yl)piperidine-1-carboxamide]		0.149	548
COCC1(O)CCC(COc2ncc(S(=O)(=O)NC(=O)c3ccc(N4CCN(CC5=C(c6ccc(Cl)cc6)CC(C)(C)CC5)CC4)cc3Oc3cnc4[nH]ccc4c3)cc2Cl)CC1 (stereo not drawn) [Example 399, N-[(5-chloro-6-{[trans-4-hydroxy-4-(methoxymethyl)cyclohexyl]methoxy}pyridin-3-yl)sulfonyl]-4-(4-{[2-(4-chlorophenyl)-4,4-dimethylcyclohex-1-en-1-yl]methyl}piperazin-1-yl)-2-(1H-pyrrolo[2,3-b]pyridin-5-yloxy)benzamide]		< 0.01	127
CC1(C)CCC(CN2CCN(c3ccc(C(=O)NS(=O)(=O)c4cnc(OC[C@H]5CC[C@](O)(CO)CC5)c(Cl)c4)c(Oc4cnc5[nH]ccc5c4)c3)CC2)=C(c2ccc(Cl)cc2)C1 [Example 400, N-[(5-chloro-6-{[cis-4-hydroxy-4-(hydroxymethyl)cyclohexyl]methoxy}pyridin-3-yl)sulfonyl]-4-(4-{[2-(4-chlorophenyl)-4,4-dimethylcyclohex-1-en-1-yl]methyl}piperazin-1-yl)-2-(1H-pyrrolo[2,3-b]pyridin-5-yloxy)benzamide]		0.031	64
CC1(C)CCC(CN2CCN(c3ccc(C(=O)NS(=O)(=O)c4cnc(OC[C@H]5CC[C@@](O)(CO)CC5)c(Cl)c4)c(Oc4cnc5[nH]ccc5c4)c3)CC2)=C(c2ccc(Cl)cc2)C1 [Example 401, N-[(5-chloro-6-{[trans-4-hydroxy-4-(hydroxymethyl)cyclohexyl]methoxy}pyridin-3-yl)sulfonyl]-4-(4-{[2-(4-chlorophenyl)-4,4-dimethylcyclohex-1-en-1-yl]methyl}piperazin-1-yl)-2-(1H-pyrrolo[2,3-b]pyridin-5-yloxy)benzamide]		< 0.01	26.6
O=C(NS(=O)(=O)c1ccc(NCC2CCOCC2)c([N+](=O)[O-])c1)c1ccc(N2CCN(CC3=C(c4ccc(Cl)cc4)CCCC3)CC2)cc1Oc1cnc2[nH]ccc2c1 [Example 403, 4-(4-{[2-(4-chlorophenyl)cyclohex-1-en-1-yl]methyl}piperazin-1-yl)-N-({3-nitro-4-[(tetrahydro-2H-pyran-4-ylmethyl)amino]phenyl}sulfonyl)-2-(1H-pyrrolo[2,3-b]pyridin-5-yloxy)benzamide]		< 0.01	34
CC1(C(=O)O)CCC(c2ccc(Cl)cc2)=C(CN2CCN(c3ccc(C(=O)NS(=O)(=O)c4ccc(NCC5CCOCC5)c([N+](=O)[O-])c4)c(Oc4cnc5[nH]ccc5c4)c3)CC2)C1 (stereo not drawn) [Example 404, 4-(4-chlorophenyl)-1-methyl-3-[(4-{4-[({3-nitro-4-[(tetrahydro-2H-pyran-4-ylmethyl)amino]phenyl}sulfonyl)carbamoyl]-3-(1H-pyrrolo[2,3-b]pyridin-5-yloxy)phenyl}piperazin-1-yl)methyl]cyclohex-3-ene-1-carboxylic acid]		< 0.01	> 1000
